Measured values: patent US20060194874A1, “Use of propionyl l-carnitine for the preparation of a medicament for the treatment of glaucoma” (priority 2002, published 2006)

Columns and labels:
[1] = tested on: ganglionic cells of the retina and/or astrocytes of the optic nerve; assay: In-vivo rat model of methylcellulose (MTC)-induced intraocular hypertension (experimental glaucoma): histology and TUNEL
Description: The effect of propionyl L-carnitine was evaluated in an in-vivo experimental rat model. This model of induction of programmed cell death (apoptosis) and/or necrosis of ganglionic cells of the retina and/or astrocytes of the optic nerve is described in the above-mentioned Acta Ophthalmologica Scandinavica, 1988, Supplement 27, 20-21 and Experimental Postgraduate Degree Thesis, Institute of Ophthalmology, “La Sapienza” University, Rome. Intraocular hypertension was induced by means of injecting methylcellulose (MTC) into the anterior chamber. The rats were divided into three groups: 1) untreated (blanks), 2) rats treated with 2% MTC (10 μL), and 3) rats treated with MTC and propionyl L-carnitine 0.15 mM final concentration injected into the anterior chamber. In semithin histological sections of untreated rat optic nerve (haematoxylin-eosin staining), normal longitudinal organisation of the astrocytes among the fibres was detected (FIG. 1A). In contrast, in rats treated with MTC, loss of cell organisation and the presence of necrotic astrocytes were detected (FIG. 1B).

[2] = tested on: 3T6 cells (murine fibroblast line); assay: Cell count with erythrosine stain, 3T6 cells grown in complete medium; assay type: cell-based; conditions: 3T6 cells in complete medium, count 24 hours after administration
Description: 3T6 cells (murine fibroblast line) grown in complete medium (DMEM: 10% NBS, 2% PEST and 2% glutamine) were treated with propionyl L-carnitine 24 hours after plating the cells. 48 hours after plating (24 hours after administration of the substance), a cell count was performed on the cells thus treated with an erythrosine stain that detects cells that are no longer viable (diluted 1:5 with PBS A buffer) from which the cell survival data were obtained. As controls, we used cells cultivated in complete medium on which the cell count was performed, again 24 hours after plating.

[3] = tested on: 3T6 cells (murine fibroblast line); assay: Cell count with erythrosine staining, serum-deprived 3T6 cells (induced apoptosis); assay type: cell-based; conditions: 0.25 mM, 0.55 mM, 1.1 mM
Description: In subsequent experiments, apoptosis was induced in 3T6 cells 24 hours after plating by means of serum deprivation, and simultaneously propionyl L-carnitine was added to the cells. Three different concentrations of the compound were used: 0.25 mM, 0.55 mM and 1.1 mM. 48 hours after plating (24 hours after administration of the substance) a cell count with erythrosine staining was performed. Cells grown in complete medium were taken as the negative control and serum-deprived cells as the positive control.

[4] = tested on: 3T6 cells (murine fibroblast line); assay: TUNEL reaction in vitro (chromatin status) in serum-deprived 3T6 cells; assay type: cell-based
Description: (§1) To assess the chromatin status (and thus the apoptosis) in serum-deprived 3T6 cells, and, in cells treated with propionyl L-carnitine, a TUNEL (terminal deoxynucleotidyl transferase-mediated dUTP-biotin end labelling) reaction was performed in vitro. TUNEL labelling is a technique that consists in the addition of nucleotides (conjugated with fluorescein) at the free 3′-OH extremities present in the fragmented DNA. This reaction is catalysed by the terminal enzyme transferase. The TUNEL technique was performed on untreated serum-deprived cells and on serum-deprived cells to which the three concentrations (0.25 mM, 0.55 mM, and 1.1 mM) of propionyl L-carnitine already used for the cell counts were administered. […] The binding of the primary antibody with its epitope to BAX was detected with a secondary antibody that exploits DAB ([…]) staining. The cells subjected to cytoimmunological localisation were deprived of serum 24 hours after plating and treated with propionyl L-carnitine at the above-mentioned concentrations. Cells grown in complete medium were used as the positive control, while the negative control was prepared with cells deprived of serum 24 hours after plating.

BAX = assay: Cytoimmunological localisation of BAX (DAB staining, haematoxylin counterstain) in serum-deprived 3T6 cells; assay type: cell-based, murine
Description: as §1
Counterstaining with a nuclear dye such as haematoxylin was also performed in order to confirm the fact that the staining obtained with cytoimmunological localisation was effectively cytoplasmic. On the basis of the data reported in the literature, in fact, it is known that BAX is a cytoplasmically localised protein. […] On comparing the data obtained in the cell counts, with the TUNEL technique and with cytoimmunological localisation, an improvement can be found in cell survival after treatment with propionyl L-carnitine. This proves evident both in cells grown in complete medium and in cells grown in conditions in which apoptosis is induced as a result of serum deprivation.

[5] = tested on: patients suffering from glaucoma; assay: Clinical trial: ocular colour Doppler ultrasonography, visual field (Octopus) and intraocular pressure; assay type: in vivo, human
Description: Ten patients suffering from glaucoma were treated with propionyl L-carnitine (DROMOS®) by mouth at a dose of 2 g/day for periods ranging from 15 to 50 days. Ocular arterial flow was studied by means of ocular colour Doppler ultrasonography. The posterior (nasal) ciliary artery, the posterior (temporal) ciliary artery, the central retinal and ophthalmic arteries were examined. Systolic and diastolic flow rates were expressed in cm/sec; the ratio (systolic—diastolic flow)/systolic flow expresses the peripheral resistance index. Visual fields before and after treatment with DROMOS® were compared.

[6] = ten glaucoma patients, 2 g/day by mouth, 15 to 50 days

CCC(=O)O[C@H](CC(=O)[O-])C[N+](C)(C)C [propionyl L-carnitine]
organisation of astrocytes in semithin histological sections of optic nerve ([1]; rats treated with 2% MTC (10 μL) and propionyl L-carnitine 0.15 mM final concentration, injected into the anterior chamber, haematoxylin-eosin, FIG. 1C): longitudinal organisation among the fibres
necrotic cells (astrocytes) in optic nerve sections ([1]; rats treated with 2% MTC and propionyl L-carnitine 0.15 mM, anterior chamber, FIG. 1C): no necrotic cells were detected
TUNEL fluorescence (apoptotic cells) in optic nerves ([1]; rats treated with MTC and propionyl L-carnitine 0.15 mM, anterior chamber, fluorescence microscopy, FIG. 2B): the presence of TUNEL fluorescence was not observed
cell growth (cell count) compared to untreated control cells [2]: an increase in cell growth
cell viability compared to negative control (complete medium) [3]: still less than that obtained in the negative control
cell mortality compared to serum-deprived cells (positive control) ([3]; count 24 hours after administration): a reduction in cell mortality
cytoprotective effect, dependence on concentration ([4]; 0.25 mM, 0.55 mM, 1.1 mM): increased with the increase in concentration
chromatin fragmentation (TUNEL fluorescence intensity) ([4]; serum-deprived 3T6 cells vs untreated serum-deprived cells, FIG. 3B): a marked reduction in chromatin fragmentation
alterations of chromatin condensation (haematoxylin counterstaining) (BAX; serum-deprived 3T6 cells after treatment): tend to be reduced
BAX expression, dependence on concentration (BAX; serum-deprived 3T6 cells, 0.25 mM, 0.55 mM, 1.1 mM): proportional to the different concentrations
expression of BAX compared to untreated serum-deprived cells (BAX; serum-deprived 3T6 cells, FIG. 4B): a lower expression of BAX
Visual field (Octopus) after treatment, MD ([5]; Patient 1, OS, 30 days of treatment, before treatment 2): 5.6
Visual field (Octopus) after treatment, MS ([5]; Patient 1, OS, 30 days of treatment, before treatment 11.6): 20.2
Posterior nasal ciliary artery resistance index (R.I.) after treatment ([5]; Patient 1, SN, 30 days, before treatment 0.63): 0.66
Posterior nasal ciliary artery diastolic flow after treatment ([5]; Patient 1, SN, 30 days, before treatment 2.21): 5.75 cm/sec
Posterior nasal ciliary artery systolic flow after treatment ([5]; Patient 1, SN, 30 days, before treatment 5.96): 16.7 cm/sec
Posterior temporal ciliary artery resistance index (R.I.) after treatment ([5]; Patient 2, DX, 12 days, before treatment (SN) 0.67): 0.55
Posterior temporal ciliary artery diastolic flow after treatment ([5]; Patient 2, DX, 12 days, before treatment (SN) 1.92): 3.86 cm/sec
Posterior temporal ciliary artery systolic flow after treatment ([5]; Patient 2, DX, 12 days, before treatment (SN) 5.75): 8.65 cm/sec
Visual field (Octopus) after treatment, MD ([5]; Patient 2, OD, 12 days of treatment, before treatment 11.1): 8.4
Visual field (Octopus) after treatment, MS ([5]; Patient 2, OD, 12 days of treatment, before treatment 15.5): 16.2
visual fields ([5]; subjects with stable glaucoma, 2 g/day by mouth): improves visual fields
intraocular pressure (IOP) [5, 6]: no significant reduction in IOP
ocular arterial flows [5, 6]: increases the flows
peripheral resistance index in the sectors affected [5, 6]: reduces the resistance index
